Three compounds from publication PMC12302228 (RSC Medicinal Chemistry, 2025) can be followed below.

The subject of one series is M21. Briefly: Antiproliferative activity, SRB assay. It counts as cell-based, human. Particulars: Homo sapiens, M21, 48 h, read-out: IC50 M21, 48 h of treatment; mean ± SEM. On the technique in general: Sulforhodamine B stains cellular protein and so reports cell mass.
A further series has as its system HT-29. Briefly: Antiproliferative activity, SRB assay. It counts as cell-based, human. Particulars: Homo sapiens, HT-29, 48 h, read-out: IC50 HT-29, 48 h of treatment; mean ± SEM.
The subject of a further series is MCF7. Briefly: Antiproliferative activity, SRB assay. The format is cell-based, human. Particulars: Homo sapiens, MCF7, 48 h, read-out: IC50 MCF7, 48 h of treatment; mean ± SEM.
In another series the test system is THP-1. Briefly: Antiproliferative activity, MTT assay. The format is cell-based, human. Particulars: mean ± SEM.
A further series deals with MOLM-13 cells. Briefly: Differentiation of AML cells, CD11b/CD14 flow cytometry. It counts as cell-based, human. Particulars: 120 h at 2-fold IC50. On the technique in general: In flow cytometry, cells or beads pass a laser one at a time.
The next series concerns histone H2AX. Briefly: H2AX phosphorylation, immunofluorescence in M21 cells. It counts as cell-based, human. Particulars: 24 h at 2-fold IC50.
Series [1] in a line: Metabolic stability in liver microsomes. To be noted: rat, pH 7.4. The format is in vitro ADME. (Liver microsomes are vesicles of endoplasmic reticulum, rich in cytochrome P450 enzymes.)
The next series can be described thus: physchem. Particulars: ultrapure water, 37 °C, kinetic from dmso stock.
The nature of series [2]: Metabolic stability in liver microsomes. It counts as in vitro ADME, mouse. To be noted: for half-life at 4 µM / microsomal CLint at 4 µM: mouse, liver microsomes, pH 7.4; for Clearance category MLM: ranked by CLint.
The next series concerns the target human DHODH (Homo sapiens, UniProt Q02127). The experiment in a line: Human DHODH colorimetric. The format is biochemical.
Another series concerns HL-60. The experiment in a line: Antiproliferative activity, MTT assay. The format is cell-based, human. Particulars: Homo sapiens, HL-60, 48 h, read-out: IC50 HL-60, 48 h of treatment; mean ± SEM.
Series [3] in a line: Metabolic stability in liver microsomes. The format is in vitro ADME. Particulars: human, pH 7.4.
Another series concerns THP-1 cells. Briefly: Differentiation of AML cells, CD11b/CD14 flow cytometry. The format is cell-based, human. Particulars: 120 h.
The mark [4] stands for this setting: read-out: IC50 THP-1, 48 h of treatment.

Read-outs that look alike come from different tables or passages of the source.

human DHODH, sequence (Q02127 whole entry): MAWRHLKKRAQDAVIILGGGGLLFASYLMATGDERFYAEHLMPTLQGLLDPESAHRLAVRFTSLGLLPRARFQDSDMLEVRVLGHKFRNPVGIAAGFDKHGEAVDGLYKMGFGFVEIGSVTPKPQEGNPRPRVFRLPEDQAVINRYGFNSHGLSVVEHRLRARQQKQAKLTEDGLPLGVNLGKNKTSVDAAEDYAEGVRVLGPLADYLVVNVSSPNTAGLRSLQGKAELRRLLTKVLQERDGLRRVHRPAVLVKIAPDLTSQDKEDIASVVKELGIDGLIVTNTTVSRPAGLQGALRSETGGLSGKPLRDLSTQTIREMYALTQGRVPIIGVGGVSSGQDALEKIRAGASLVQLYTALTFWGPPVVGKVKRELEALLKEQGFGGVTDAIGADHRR

As usually defined, the IC50 is the midpoint of a concentration-inhibition curve. As to `Cc1c(-c2ccc(-c3ccccc3F)cc2)nc2ccc(F)cc2c1C(=O)O` [Brequinar, reference compound], the IC50 turned out to be 0.46 ± 0.05 µM in the series with M21; 0.69 ± 0.07 µM in the series on HT-29; 3.8 ± 0.9 µM in the series with MCF7; 0.17 ± 0.04 µM with THP-1 (Homo sapiens, THP-1, 48 h, read-out: IC50 THP-1, 48 h of treatment). Further, the “CD11b expression, share of the cell population” value (“CD11b expression, share” for short) with MOLM-13 cells is 34%.

A word on the half-life: it is the time needed for the level to fall by half in the phase considered. A high value points to slow decline. Usually microsomal CLint stands for a measure of how fast metabolising enzymes remove a compound, apart from limits set by blood flow. A lower microsomal CLint goes with greater metabolic stability. For orientation: solubility means the dissolved amount per volume that the medium holds. High values mean a readily soluble substance, low ones a poorly soluble substance. Turning to `CCNC(=O)Nc1ccc(S(=O)(=O)Oc2cccnc2I)cc1.Cl` [Compound 20, 2-Iodopyridin-3-yl 4-(3-ethylureido)benzenesulfonate hydrochloride], the “Phosphorylation of H2AX into γH2AX (γH2AX foci)” value in the series with histone H2AX is “promote the phosphorylation of H2AX into γH2AX”. In addition, the half-life at 4 µM in [1] was determined as 3.17 ± 0.333 h; in [2], 1.33 ± 0.167 h; in series [3] it was 3.6 ± 0.167 h. Moreover, the microsomal CLint at 4 µM in series [1] was found to be 7.4 ± 0.6 µL/min/mg; in series [2], 18 ± 2 µL/min/mg; in series [3], 6.5 ± 0.3 µL/min/mg. This compound displayed a solubility at 24 h in the series “physchem” of 0.19 ± 0.01 mg/mL. Also, the IC50 in the series on M21 worked out at 7.7 ± 0.7 µM; in the series on HT-29 it was 6.8 ± 0.6 µM; in the series with MCF7 it was 12 ± 1 µM; against human DHODH, 0.031 µM; with THP-1 (setting [4]) it was 1.1 ± 0.5 µM; in the series on HL-60 it was 37 ± 6 µM. Moreover, in series [2], the “Clearance category MLM” value is on record as “medium (medium clearance category for MLM (13.1 < CLint < 71.1))”. Moreover, in the series with MOLM-13 cells, the “CD11b expression, share” value came to 38%.

Regarding `CCNC(=O)Nc1ccc(S(=O)(=O)Oc2cccnc2C(C)C)cc1.Cl` [Compound 21, 2-Isopropylpyridin-3-yl 4-(3-ethylureido)benzenesulfonate hydrochloride], the “Phosphorylation of H2AX into γH2AX (γH2AX foci)” value with histone H2AX was “promote the phosphorylation of H2AX into γH2AX”. The half-life at 4 µM in series [1] was determined as 2.5 ± 0.5 h; in series [2], 0.95 ± 0.0667 h; in series [3], 1.48 ± 0.0333 h. Further, the microsomal CLint at 4 µM is 11 ± 2 µL/min/mg in [1], 25 ± 2 µL/min/mg in series [2] and 15.7 ± 0.3 µL/min/mg in series [3]. Further, the solubility at 24 h in the series “physchem” is 0.188 ± 0.001 mg/mL. Besides, the IC50 in the series with M21 was found to be 11 ± 1 µM; in the series on HT-29, 8 ± 0.3 µM; in the series with MCF7, 24 ± 3 µM; on human DHODH it was 0.012 µM; with THP-1 (setting [4]), 6 ± 2 µM; with HL-60, 50 ± 10 µM. The “CD11b and CD14 positivity, share of the cell population” value with THP-1 cells is on record as 57%. Further, the “Clearance category MLM” value in series [2] is “medium (medium clearance category for MLM (13.1 < CLint < 71.1))”. The “CD11b expression, share” value in the series on MOLM-13 cells stood at 26%.
